Structures are written as SMILES.

Chain of RORγ receptor (P51449 269-508): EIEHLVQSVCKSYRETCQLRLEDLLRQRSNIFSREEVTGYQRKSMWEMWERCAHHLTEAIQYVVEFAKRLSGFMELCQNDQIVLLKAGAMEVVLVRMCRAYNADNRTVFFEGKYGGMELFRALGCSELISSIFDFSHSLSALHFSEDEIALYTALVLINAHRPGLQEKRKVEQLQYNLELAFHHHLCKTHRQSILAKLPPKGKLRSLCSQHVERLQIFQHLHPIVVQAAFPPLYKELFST

In this experiment the target is RORγ receptor (Homo sapiens, UniProt P51449). The experiment is described as follows: RORγ Gal4 reporter assay (Gal4-luciferase, inverse agonist activity). The format is cell-based. The following applies: Jurkat cells stably over-expressing hRORγ; Gal4-luciferase reporter; overnight incubation; read-out: RORγ Gal4, IC50. Here is the method:
General RORγ Gal4 Reporter Assay
IC50 values were determined.
(Reporter assays use an easily measured gene product as a stand-in for the process of interest.)
In the case of `O=C(Nc1ccnc2[nH]ncc12)[C@@H]1CC[C@@]2(S(=O)(=O)c3ccc(F)cc3)c3ccc(C(F)(C(F)(F)F)C(F)(F)F)cc3CC[C@@H]12` [Example 27], the IC50 (commonly the concentration that gives 50% inhibition) amounted to 48 nM.

With `O=C([C@@H]1CC[C@@]2(S(=O)(=O)c3ccc(F)cc3)c3ccc(C(F)(C(F)(F)F)C(F)(F)F)cc3CC[C@@H]12)N1CCS(=O)(=O)CC1` [Example 40], the half-inhibitory concentration (IC50) worked out at 14 nM.

Turning to `O=C([C@@H]1CC[C@@]2(S(=O)(=O)c3ccc(F)cc3)c3ccc(C(F)(C(F)(F)F)C(F)(F)F)cc3CC[C@@H]12)N1CC(F)(F)C(F)(F)C1` [Example 63], the IC50 came out at 21 nM.

For the molecule `O=C([C@@H]1CC[C@@]2(S(=O)(=O)c3ccc(F)cc3)c3ccc(C(F)(C(F)(F)F)C(F)(F)F)cc3CC[C@@H]12)N1CC(F)(F)C[C@@H]1CO` [Example 64], the 50% inhibitory concentration (IC50) came out at 37 nM.

As to `O=C([C@@H]1CC[C@@]2(S(=O)(=O)c3ccc(F)cc3)c3ccc(C(F)(C(F)(F)F)C(F)(F)F)cc3CC[C@@H]12)N1CCC(F)(F)C1` [Example 65], the IC50 was 13 nM.

For `NC(=O)[C@H]1CC(F)(F)CN1C(=O)[C@@H]1CC[C@@]2(S(=O)(=O)c3ccc(F)cc3)c3ccc(C(F)(C(F)(F)F)C(F)(F)F)cc3CC[C@@H]12` [Example 66], the IC50 is 15 nM.

Take `CS(=O)(=O)N1CCC(NC(=O)[C@@H]2CC[C@@]3(S(=O)(=O)c4ccc(F)cc4)c4ccc(C(F)(C(F)(F)F)C(F)(F)F)cc4CC[C@@H]23)CC1` [Example 77]: the IC50 was determined as 4 nM.

As to `O=C([C@@H]1CC[C@@]2(S(=O)(=O)c3ccc(F)cc3)c3ccc(C(F)(C(F)(F)F)C(F)(F)F)cc3CC[C@@H]12)N1CCC2(CCNC2=O)CC1` [Example 82], the IC50 is 18 nM.

`O=C1CC2(CCN(C(=O)[C@@H]3CC[C@@]4(S(=O)(=O)c5ccc(F)cc5)c5ccc(C(F)(C(F)(F)F)C(F)(F)F)cc5CC[C@@H]34)CC2)CN1` [Example 83]: the IC50 is 9 nM.

As to `O=C1CC2(CCN(C(=O)[C@@H]3CC[C@@]4(S(=O)(=O)c5ccc(F)cc5)c5ccc(C(F)(C(F)(F)F)C(F)(F)F)cc5CC[C@@H]34)CC2)N1` [Example 84], the IC50 is 5 nM.

As to `O=C([C@@H]1CC[C@@]2(S(=O)(=O)c3ccc(F)cc3)c3ccc(C(F)(C(F)(F)F)C(F)(F)F)cc3CC[C@@H]12)N1CCC2(CC1)CNC2=O` [Example 85], the IC50 came out at 14 nM.

Consider `O=C(O)C1CCN(C(=O)[C@@H]2CC[C@@]3(S(=O)(=O)c4ccc(F)cc4)c4ccc(C(F)(C(F)(F)F)C(F)(F)F)cc4CC[C@@H]23)C1` (stereo partly drawn) [Example 91], for which the IC50 was 40 nM.

For `O=C(O)C1CCN(C(=O)[C@@H]2CC[C@@]3(S(=O)(=O)c4ccc(F)cc4)c4ccc(C(F)(C(F)(F)F)C(F)(F)F)cc4CC[C@@H]23)C1` (stereo partly drawn) [Example 92], the IC50 was determined as 41 nM.

In the case of `O=C(O)C1CCCC(NC(=O)[C@@H]2CC[C@@]3(S(=O)(=O)c4ccc(F)cc4)c4ccc(C(F)(C(F)(F)F)C(F)(F)F)cc4CC[C@@H]23)C1` (stereo partly drawn) [Example 98], the IC50 worked out at 22 nM.

As to `O=C(O)C1CCCC(NC(=O)[C@@H]2CC[C@@]3(S(=O)(=O)c4ccc(F)cc4)c4ccc(C(F)(C(F)(F)F)C(F)(F)F)cc4CC[C@@H]23)C1` (stereo partly drawn) [Example 99], the IC50 is 14 nM.

In the case of `O=C(O)C1CCCC(NC(=O)[C@@H]2CC[C@@]3(S(=O)(=O)c4ccc(F)cc4)c4ccc(C(F)(C(F)(F)F)C(F)(F)F)cc4CC[C@@H]23)C1` (stereo partly drawn) [Example 100], the IC50 amounted to 53 nM.

`O=C(N[C@H]1CC[C@H](C(=O)O)CC1)[C@@H]1CC[C@@]2(S(=O)(=O)c3ccc(F)cc3)c3ccc(C(F)(C(F)(F)F)C(F)(F)F)cc3CC[C@@H]12` [Example 102]: the IC50 came to 33 nM.

On to `O=C(NC12CCC(C(=O)O)(CC1)CC2)[C@@H]1CC[C@@]2(S(=O)(=O)c3ccc(F)cc3)c3ccc(C(F)(C(F)(F)F)C(F)(F)F)cc3CC[C@@H]12` [Example 103], for which the IC50 amounted to 31 nM.

On to `C[C@H]1CN(C(=O)[C@@H]2CC[C@@]3(S(=O)(=O)c4ccc(F)cc4)c4ccc(C(F)(C(F)(F)F)C(F)(F)F)cc4CC[C@@H]23)CC[C@@H]1C(=O)O` [Example 105], for which the IC50 turned out to be 42 nM.

On to `O=C(N[C@@H]1CC[C@@]2(S(=O)(=O)c3ccc(F)cc3)c3ccc(C(F)(C(F)(F)F)C(F)(F)F)cc3CC[C@@H]12)C1(O)CCS(=O)(=O)CC1` [Example 123, N-((3R,3aS,9bS)-9b-((4-fluorophenyl)sulfonyl)-7-(perfluoropropan-2-yl)-2,3,3a,4,5,9b-hexahydro-1H-cyclopenta[a]naphthalen-3-yl)-4-hydroxytetrahydro-2H-thiopyran-4-carboxamide 1,1-dioxide], for which the IC50 turned out to be 2 nM.

In the case of `CS(=O)(=O)N1CCC(O)(C(=O)N[C@@H]2CC[C@@]3(S(=O)(=O)c4ccc(F)cc4)c4ccc(C(F)(C(F)(F)F)C(F)(F)F)cc4CC[C@@H]23)CC1` [Example 124], the half-maximal inhibitory concentration (IC50) amounted to 7 nM.

Take `O=C(O)[C@H]1CC[C@H](C(=O)N[C@@H]2CC[C@@]3(S(=O)(=O)c4ccc(F)cc4)c4ccc(C(F)(C(F)(F)F)C(F)(F)F)cc4CC[C@@H]23)CC1` [Example 139]: the 50% inhibitory concentration (IC50) stood at 24 nM.

Take `O=C(O)C1CC2(C1)CC(C(=O)N[C@@H]1CC[C@@]3(S(=O)(=O)c4ccc(F)cc4)c4ccc(C(F)(C(F)(F)F)C(F)(F)F)cc4CC[C@@H]13)C2` (stereo partly drawn) [Example 141]: the IC50 amounted to 7 nM.

Turning to `O=C(N[C@@H]1CC[C@@]2(S(=O)(=O)c3ccc(F)cc3)c3ccc(C(F)(C(F)(F)F)C(F)(F)F)cc3CC[C@@H]12)C1(O)CCS(=O)(=O)CC1` [Example 144], the IC50 was 40 nM.

With `Cc1ncn(C)c1C(=O)N[C@@H]1CC[C@@]2(S(=O)(=O)c3ccc(F)cc3)c3ccc(C(F)(C(F)(F)F)C(F)(F)F)cc3CC[C@@H]12` [Example 146], the IC50 was 13 nM.

As to `Cc1nnsc1C(=O)N[C@@H]1CC[C@@]2(S(=O)(=O)c3ccc(F)cc3)c3ccc(C(F)(C(F)(F)F)C(F)(F)F)cc3CC[C@@H]12` [Example 147], the IC50 came out at 9 nM.

Take `O=C(N[C@@H]1CC[C@@]2(S(=O)(=O)c3ccc(F)cc3)c3ccc(C(F)(C(F)(F)F)C(F)(F)F)cc3CC[C@@H]12)C1CCS(=O)(=O)CC1` [Example 149, N-((3R,3aS,9bS)-9b-((4-fluorophenyl)sulfonyl)-7-(perfluoropropan-2-yl)-2,3,3a,4,5,9b-hexahydro-1H-cyclopenta[a]naphthalen-3-yl)tetrahydro-2H-thiopyran-4-carboxamide 1,1-dioxide]: the IC50 is 9 nM.

Regarding `O=C(N[C@@H]1CC[C@@]2(S(=O)(=O)c3ccc(F)cc3)c3ccc(C(F)(C(F)(F)F)C(F)(F)F)cc3CC[C@@H]12)[C@H](O)C(F)(F)F` [Example 157], the IC50 worked out at 13 nM.

`O=C(N[C@@H]1CC[C@@]2(S(=O)(=O)c3ccc(F)cc3)c3ccc(C(F)(C(F)(F)F)C(F)(F)F)cc3CC[C@@H]12)[C@@H](O)Cc1c[nH]cn1` [Example 158]: the IC50 was determined as 14 nM.

In the case of `NC(=O)c1c(F)cc(C(=O)N[C@@H]2CC[C@@]3(S(=O)(=O)c4ccc(F)cc4)c4ccc(C(F)(C(F)(F)F)C(F)(F)F)cc4CC[C@@H]23)cc1F` [Example 159], the half-inhibitory concentration (IC50) came to 3 nM.

Regarding `O=C(N[C@@H]1CC[C@@]2(S(=O)(=O)c3ccc(F)cc3)c3ccc(C(F)(C(F)(F)F)C(F)(F)F)cc3CC[C@@H]12)c1cccnc1O` [Example 161], the IC50 is 16 nM.

Regarding `O=C(O)c1ccc(C(=O)N[C@@H]2CC[C@@]3(S(=O)(=O)c4ccc(F)cc4)c4ccc(C(F)(C(F)(F)F)C(F)(F)F)cc4CC[C@@H]23)cc1` [Example 162], the IC50 turned out to be 22 nM.

In the case of `CS(=O)(=O)N1CC(O)(C(=O)N[C@@H]2CC[C@@]3(S(=O)(=O)c4ccc(F)cc4)c4ccc(C(F)(C(F)(F)F)C(F)(F)F)cc4CC[C@@H]23)C1` [Example 168], the IC50 was 28 nM.

Regarding `O=C(N[C@@H]1CC[C@@]2(S(=O)(=O)c3ccc(F)cc3)c3ccc(C(F)(C(F)(F)F)C(F)(F)F)cc3CC[C@@H]12)c1ccc(=O)[nH]c1` [Example 188], the concentration for half-maximal inhibition (IC50) worked out at 9 nM.

On to `Cn1cc(C(=O)N[C@@H]2CC[C@@]3(S(=O)(=O)c4ccc(F)cc4)c4ccc(C(F)(C(F)(F)F)C(F)(F)F)cc4CC[C@@H]23)ccc1=O` [Example 189], for which the IC50 was found to be 9 nM.

For `O=C(O)[C@H]1CC[C@](O)(C(=O)N[C@@H]2CC[C@@]3(S(=O)(=O)c4ccc(F)cc4)c4ccc(C(F)(C(F)(F)F)C(F)(F)F)cc4CC[C@@H]23)CC1` [Example 191, (1s,4s)-4-(((3R,3aS,9bS)-9b-((4-fluorophenyl)sulfonyl)-7-(perfluoropropan-2-yl)-2,3,3a,4,5,9b-hexahydro-1H-cyclopenta[a]naphthalen-3-yl)carbamoyl)-4-hydroxycyclohexane-1-carboxylic acid], the half-maximal inhibitory concentration (IC50) worked out at 54 nM.

For the molecule `O=C(O)[C@H]1CC[C@](F)(C(=O)N[C@@H]2CC[C@@]3(S(=O)(=O)c4ccc(F)cc4)c4ccc(C(F)(C(F)(F)F)C(F)(F)F)cc4CC[C@@H]23)CC1` [Example 192], the IC50 stood at 24 nM.

Consider `O=C(O)C12C3C4C1C1C2C3C41C(=O)N[C@@H]1CC[C@@]2(S(=O)(=O)c3ccc(F)cc3)c3ccc(C(F)(C(F)(F)F)C(F)(F)F)cc3CC[C@@H]12` (stereo partly drawn) [Example 193], for which the concentration for half-maximal inhibition (IC50) is 97 nM.

As to `C[C@H]1C[C@H](C(=O)O)CC[C@H]1C(=O)N[C@@H]1CC[C@@]2(S(=O)(=O)c3ccc(F)cc3)c3ccc(C(F)(C(F)(F)F)C(F)(F)F)cc3CC[C@@H]12` [Example 194], the IC50 worked out at 32 nM.

Consider `CC(C)(N)C(=O)N[C@@H]1CC[C@@]2(S(=O)(=O)c3ccc(F)cc3)c3ccc(C(F)(C(F)(F)F)C(F)(F)F)cc3CC[C@@H]12` [Example 197], for which the IC50 worked out at 30 nM.

`CC(C)(N)[C@H](N)C(=O)N[C@@H]1CC[C@@]2(S(=O)(=O)c3ccc(F)cc3)c3ccc(C(F)(C(F)(F)F)C(F)(F)F)cc3CC[C@@H]12` [Example 198]: the half-maximal inhibitory concentration (IC50) was determined as 17 nM.

On to `CC(C)(C(=O)N[C@@H]1CC[C@@]2(S(=O)(=O)c3ccc(F)cc3)c3ccc(C(F)(C(F)(F)F)C(F)(F)F)cc3CC[C@@H]12)N1CCNCC1` [Example 200], for which the IC50 worked out at 63 nM.
